Species: Rattus norvegicus
Experiment: DrugMatrix - Regimen: Daily Repeat
Type: toxicity, organism-based, Sprague-Dawley
Set-up: regimen Daily Repeat, gender Male, age 6-8 weeks
Settings: in vivo, po, route oral GAVAGE, vehicle .5 % CMC; for ABSOLUTE BASOPHIL / ABSOLUTE EOSINOPHIL / ABSOLUTE LYMPHOCYTE / ABSOLUTE MONOCYTE / ABSOLUTE SEGMENTED NEUTROPHIL / BASOPHIL / EOSINOPHIL / ERYTHROCYTE COUNT / HEMATOCRIT / HEMOGLOBIN / LEUKOCYTE COUNT / LYMPHOCYTE / MEAN CORPUSCULAR HEMOGLOBIN / MEAN CORPUSCULAR HEMOGLOBIN CONCENTRATION / MEAN CORPUSCULAR VOLUME / MONOCYTE / NEUTROPHIL / NUCLEATED RED BLOOD CELLS / PLATELET COUNT: tissue Blood; for ALANINE AMINOTRANSFERASE / ALBUMIN / ALKALINE PHOSPHATASE / ASPARTATE AMINOTRANSFERASE / BLOOD UREA NITROGEN / CARBON DIOXIDE / CHLORIDE / CHOLESTEROL / CREATINE PHOSPHOKINASE / CREATININE / GLUCOSE / LACTATE DEHYDROGENASE / LIPASE / PHOSPHORUS / POTASSIUM / SODIUM / TOTAL BILIRUBIN / TOTAL PROTEIN / URIC ACID: tissue Plasma
[1] = 500 mg/kg, 72 h, dose level Low, time 3 day
[2] = 500 mg/kg, 120 h, dose level Low, time 5 day
[3] = 2000 mg/kg, 72 h, dose level High, time 3 day
[4] = 2000 mg/kg, 120 h, dose level High, time 5 day

With `NC[C@H]1CC[C@H](C(=O)O)CC1` [TRANEXAMIC ACID] the “ABSOLUTE BASOPHIL” value [1] was 0 CELLS/uL, the “ABSOLUTE EOSINOPHIL” value [1] was 94.67 CELLS/uL and the “ABSOLUTE LYMPHOCYTE” value [1] was 11832.33 CELLS/uL. For the same molecule, the “ABSOLUTE MONOCYTE” value [1] was 147 CELLS/uL, the “ABSOLUTE SEGMENTED NEUTROPHIL” value [1] was 2626 CELLS/uL and the BASOPHIL [1] was 0%. For the same molecule, the EOSINOPHIL [1] was 0.67%, the “ERYTHROCYTE COUNT” value [1] was 5.82 x10E6/uL and the HEMATOCRIT [1] was 36.4%. For the same molecule, the HEMOGLOBIN [1] was 14.33 G/DL, the “LEUKOCYTE COUNT” value [1] was 14.7 x10E3/uL and the LYMPHOCYTE [1] was 80.33%. For the same molecule, the “MEAN CORPUSCULAR HEMOGLOBIN” value [1] was 24.63 pg, the “MEAN CORPUSCULAR HEMOGLOBIN CONCENTRATION” value [1] was 39.43 G/DL and the “MEAN CORPUSCULAR VOLUME” value [1] was 62.5 fL. The MONOCYTE [1] was 1%, the NEUTROPHIL [1] was 18% and the “NUCLEATED RED BLOOD CELLS” value [1] was 0 /100WBC. For the same molecule, the “PLATELET COUNT” value [1] was 1287 x10E3/uL, the “ALANINE AMINOTRANSFERASE” value [1] was 49.33 u/L and the ALBUMIN [1] was 4.3 G/DL. For the same molecule, the “ALKALINE PHOSPHATASE” value [1] was 364.33 u/L, the “ASPARTATE AMINOTRANSFERASE” value [1] was 83 u/L and the “BLOOD UREA NITROGEN” value [1] was 13.67 mg/dL. The “CARBON DIOXIDE” value [1] was 25.33 mmol/L, the CHLORIDE [1] was 102 MEQ/L and the CHOLESTEROL [1] was 81 mg/dL. For the same molecule, the “CREATINE PHOSPHOKINASE” value [1] was 246 u/L, the CREATININE [1] was 0.17 mg/dL and the GLUCOSE [1] was 155 mg/dL. The “LACTATE DEHYDROGENASE” value [1] was 225.67 u/L, the LIPASE [1] was 10 u/L and the PHOSPHORUS [1] was 14.07 mg/dL. For the same molecule, the POTASSIUM [1] was 6.58 MEQ/L, the SODIUM [1] was 145.07 MEQ/L and the “TOTAL BILIRUBIN” value [1] was 0.2 mg/dL. For the same molecule, the “TOTAL PROTEIN” value [1] was 6.07 G/DL, the “URIC ACID” value [1] was 1.83 mg/dL and the “ABSOLUTE BASOPHIL” value [2] was 0 CELLS/uL. The “ABSOLUTE EOSINOPHIL” value [2] was 0 CELLS/uL, the “ABSOLUTE LYMPHOCYTE” value [2] was 10774 CELLS/uL and the “ABSOLUTE MONOCYTE” value [2] was 92 CELLS/uL. The “ABSOLUTE SEGMENTED NEUTROPHIL” value [2] was 2034 CELLS/uL, the BASOPHIL [2] was 0% and the EOSINOPHIL [2] was 0%. The “ERYTHROCYTE COUNT” value [2] was 5.74 x10E6/uL, the HEMATOCRIT [2] was 35.7% and the HEMOGLOBIN [2] was 14.13 G/DL. The “LEUKOCYTE COUNT” value [2] was 12.9 x10E3/uL, the LYMPHOCYTE [2] was 83.67% and the “MEAN CORPUSCULAR HEMOGLOBIN” value [2] was 24.67 pg. For the same molecule, the “MEAN CORPUSCULAR HEMOGLOBIN CONCENTRATION” value [2] was 39.57 G/DL, the “MEAN CORPUSCULAR VOLUME” value [2] was 62.33 fL and the MONOCYTE [2] was 0.67%. The NEUTROPHIL [2] was 15.67%, the “NUCLEATED RED BLOOD CELLS” value [2] was 0 /100WBC and the “PLATELET COUNT” value [2] was 1198 x10E3/uL. For the same molecule, the “ALANINE AMINOTRANSFERASE” value [2] was 58.67 u/L, the ALBUMIN [2] was 4.17 G/DL and the “ALKALINE PHOSPHATASE” value [2] was 364.67 u/L. The “ASPARTATE AMINOTRANSFERASE” value [2] was 90.67 u/L, the “BLOOD UREA NITROGEN” value [2] was 15 mg/dL and the “CARBON DIOXIDE” value [2] was 25.67 mmol/L. For the same molecule, the CHLORIDE [2] was 102 MEQ/L, the CHOLESTEROL [2] was 61 mg/dL and the “CREATINE PHOSPHOKINASE” value [2] was 280.67 u/L. The CREATININE [2] was 0.21 mg/dL, the GLUCOSE [2] was 154 mg/dL and the “LACTATE DEHYDROGENASE” value [2] was 250.33 u/L. It also gave an LIPASE [2] of 9.33 u/L, a PHOSPHORUS [2] of 12.3 mg/dL and a POTASSIUM [2] of 6.07 MEQ/L. The SODIUM [2] was 144.43 MEQ/L, the “TOTAL BILIRUBIN” value [2] was 0.17 mg/dL and the “TOTAL PROTEIN” value [2] was 5.9 G/DL. For the same molecule, the “URIC ACID” value [2] was 1.53 mg/dL, the “ABSOLUTE BASOPHIL” value [3] was 0 CELLS/uL and the “ABSOLUTE EOSINOPHIL” value [3] was 131 CELLS/uL. The “ABSOLUTE LYMPHOCYTE” value [3] was 11124 CELLS/uL, the “ABSOLUTE MONOCYTE” value [3] was 58.67 CELLS/uL and the “ABSOLUTE SEGMENTED NEUTROPHIL” value [3] was 1786.33 CELLS/uL. The BASOPHIL [3] was 0%, the EOSINOPHIL [3] was 1% and the “ERYTHROCYTE COUNT” value [3] was 5.38 x10E6/uL. The HEMATOCRIT [3] was 32.57%, the HEMOGLOBIN [3] was 12.97 G/DL and the “LEUKOCYTE COUNT” value [3] was 13.1 x10E3/uL. The LYMPHOCYTE [3] was 84%, the “MEAN CORPUSCULAR HEMOGLOBIN” value [3] was 24.13 pg and the “MEAN CORPUSCULAR HEMOGLOBIN CONCENTRATION” value [3] was 39.83 G/DL. The “MEAN CORPUSCULAR VOLUME” value [3] was 60.57 fL, the MONOCYTE [3] was 0.33% and the NEUTROPHIL [3] was 14.67%. The “NUCLEATED RED BLOOD CELLS” value [3] was 0 /100WBC, the “PLATELET COUNT” value [3] was 1338.33 x10E3/uL and the “ALANINE AMINOTRANSFERASE” value [3] was 49.67 u/L. The ALBUMIN [3] was 3.9 G/DL, the “ALKALINE PHOSPHATASE” value [3] was 293.67 u/L and the “ASPARTATE AMINOTRANSFERASE” value [3] was 92 u/L. For the same molecule, the “BLOOD UREA NITROGEN” value [3] was 15.33 mg/dL, the “CARBON DIOXIDE” value [3] was 25.33 mmol/L and the CHLORIDE [3] was 100 MEQ/L. For the same molecule, the CHOLESTEROL [3] was 71.33 mg/dL, the “CREATINE PHOSPHOKINASE” value [3] was 923.33 u/L and the CREATININE [3] was 0.15 mg/dL. For the same molecule, the GLUCOSE [3] was 161 mg/dL, the “LACTATE DEHYDROGENASE” value [3] was 154.33 u/L and the LIPASE [3] was 10.33 u/L. It also gave a PHOSPHORUS [3] of 12.03 mg/dL, a POTASSIUM [3] of 8.02 MEQ/L and an SODIUM [3] of 142.27 MEQ/L. For the same molecule, the “TOTAL BILIRUBIN” value [3] was 0.1 mg/dL, the “TOTAL PROTEIN” value [3] was 5.47 G/DL and the “URIC ACID” value [3] was 1.53 mg/dL. The “ABSOLUTE BASOPHIL” value [4] was 0 CELLS/uL, the “ABSOLUTE EOSINOPHIL” value [4] was 40.33 CELLS/uL and the “ABSOLUTE LYMPHOCYTE” value [4] was 11921 CELLS/uL. The “ABSOLUTE MONOCYTE” value [4] was 0 CELLS/uL, the “ABSOLUTE SEGMENTED NEUTROPHIL” value [4] was 1438.67 CELLS/uL and the BASOPHIL [4] was 0%. For the same molecule, the EOSINOPHIL [4] was 0.33%, the “ERYTHROCYTE COUNT” value [4] was 5.89 x10E6/uL and the HEMATOCRIT [4] was 34.97%. For the same molecule, the HEMOGLOBIN [4] was 14.13 G/DL, the “LEUKOCYTE COUNT” value [4] was 13.4 x10E3/uL and the LYMPHOCYTE [4] was 89%. For the same molecule, the “MEAN CORPUSCULAR HEMOGLOBIN” value [4] was 24.03 pg, the “MEAN CORPUSCULAR HEMOGLOBIN CONCENTRATION” value [4] was 40.43 G/DL and the “MEAN CORPUSCULAR VOLUME” value [4] was 59.4 fL. For the same molecule, the MONOCYTE [4] was 0%, the NEUTROPHIL [4] was 10.67% and the “NUCLEATED RED BLOOD CELLS” value [4] was 0 /100WBC. The “PLATELET COUNT” value [4] was 1475.33 x10E3/uL, the “ALANINE AMINOTRANSFERASE” value [4] was 55 u/L and the ALBUMIN [4] was 4.23 G/DL. For the same molecule, the “ALKALINE PHOSPHATASE” value [4] was 354.33 u/L, the “ASPARTATE AMINOTRANSFERASE” value [4] was 79 u/L and the “BLOOD UREA NITROGEN” value [4] was 17.33 mg/dL. For the same molecule, the “CARBON DIOXIDE” value [4] was 25.67 mmol/L, the CHLORIDE [4] was 102 MEQ/L and the CHOLESTEROL [4] was 64.67 mg/dL. The “CREATINE PHOSPHOKINASE” value [4] was 364.33 u/L, the CREATININE [4] was 0.17 mg/dL and the GLUCOSE [4] was 150 mg/dL. For the same molecule, the “LACTATE DEHYDROGENASE” value [4] was 135.67 u/L, the LIPASE [4] was 10 u/L and the PHOSPHORUS [4] was 12.53 mg/dL. For the same molecule, the POTASSIUM [4] was 7.4 MEQ/L, the SODIUM [4] was 145 MEQ/L and the “TOTAL BILIRUBIN” value [4] was 0.2 mg/dL. For the same molecule, the “TOTAL PROTEIN” value [4] was 6.1 G/DL and the “URIC ACID” value [4] was 2.6 mg/dL.
